Values quoted from earlier work in patent US7745665B2, “Substituted phenethylamines” (Auspex Pharmaceuticals, Inc., priority 2007, dated 2010).

Conditions: oxidation of the methylene group alpha to the nitrogen; humans

- hydroxymandelic acid metabolite as share of the recovered mass balance: more than 50%
SMILES: CNC[C@H](O)c1cccc(O)c1 [Phenylephrine, (R)-3-(1-hydroxy-2-methylamino-ethyl)-phenol]
